The data set is described as follows: Measurement of log P values by HPLC on reversed phase columns (methods [a] pH 2.3, [b] pH 2.7, [c] pH 7.8). To be noted: method [b], pH 2.7. Format: physicochemical. On the procedure:
Measurement of log P-Values:
Measurement of log P Values was Performed According EEC Directive 79/831 Annex V.A8 by HPLC (High Performance Liquid
Chromatography) on reversed phase columns with the following methods: ^[a] Measurement was done at pH 2.3 with 0.1% phosphoric acid and acetonitrile as eluent with a linear gradient from 10% acetonitrile to 95% acetonitrile. ^[b] measurement of LC-MS was done at pH 2.7 with 0.1% formic acid in water and with acetonitrile (contains 0.1% formic acid) as eluent with a linear gradient from 10% acetonitrile to 95% acetonitrile. ^[c] Measurement with LC-MS was done at pH 7.8 with 0.001 molar ammonium hydrogen carbonate solution in water as eluent with a linear gradient from 10% acetonitrile to 95% acetonitrile.
Calibration was done with linear alkan-2-ones (with 3 to 16 carbon atoms) with known log P-values (measurement of log P values using retention times with linear interpolation between successive alkanones). Lambda-max-values were determined using UV-spectra from 200 nm to 400 nm and the peak values of the chromatographic signals.

Our source for the logP values is US20160075653A1, “NEMATICIDAL N-(PHENYLCYCLOALKYL)CARBOXAMIDES AND N-(PHENYLCYCLOALKYL)THIOCARBOXAMIDES” (BAYER CROPSCIENCE AKTIENGESELLSCHAFT, priority 2013, published 2016).

Take `O=C(N[C@@H]1CCC[C@@H]1c1ccc(F)c(F)c1)c1ncccc1C(F)(F)F` (relative stereo) [Example 90]: for the setting “HPLC on reversed phase columns”, the logP is 3.31^[b].

With `Cn1cc(C(=O)N[C@@H]2CCC[C@@H]2c2ccc(F)c(F)c2)c(C(F)(F)F)c1` (relative stereo) [Example 91], where the note is “HPLC on reversed phase columns”, the logP was 3.27^[b].

Consider `Cn1cc(C(=O)N[C@@H]2CCC[C@@H]2c2ccc(F)c(F)c2)c(C(F)(F)F)n1` (relative stereo) [Example 92], for which the logP (HPLC on reversed phase columns) was 2.98^[b].

As for `O=C(N[C@@H]1CCC[C@@H]1c1ccc(F)c(F)c1)c1sccc1C(F)(F)F` (relative stereo) [Example 93], under “HPLC on reversed phase columns”, the logP is 3.63^[b].

`O=C(N[C@@H]1CCC[C@@H]1c1ccc(F)c(F)c1)c1ccccc1Br` (relative stereo) [Example 94]: the logP (HPLC on reversed phase columns) is 3.35^[b].

Turning to `O=C(N[C@@H]1CCC[C@@H]1c1ccc(F)c(F)c1)c1ccccc1OC(F)(F)F` (relative stereo) [Example 95], the logP (HPLC on reversed phase columns) is 3.76^[b].

For `O=C(N[C@@H]1CCC[C@@H]1c1ccc(F)c(F)c1)c1sccc1Br` (relative stereo) [Example 96], the logP (HPLC on reversed phase columns) was 3.79^[b].

With `Nc1nc(C(F)(F)F)c(C(=O)N[C@@H]2CCC[C@@H]2c2ccc(F)c(F)c2)s1` (relative stereo) [Example 97], the logP (HPLC on reversed phase columns) was 2.82^[b].

For the compound `O=C(N[C@@H]1CCC[C@@H]1c1ccc(F)c(F)c1)c1ccccc1Cc1ccccc1` (relative stereo) [Example 98], the logP (HPLC on reversed phase columns) was 4.26^[b].

With `Cn1cc(C(=O)N[C@@H]2CCC[C@@H]2c2ccc(F)c(F)c2)c(I)n1` (relative stereo) [Example 99], where the note is “HPLC on reversed phase columns”, the logP is 2.75^[b].

For `Cn1ccc(I)c1C(=O)N[C@@H]1CCC[C@@H]1c1ccc(F)c(F)c1` (relative stereo) [Example 100], the logP (HPLC on reversed phase columns) was 3.83^[b].

Regarding `O=C(N[C@@H]1CCC[C@@H]1c1ccc(F)c(F)c1)c1sccc1I` (relative stereo) [Example 101], where the note is “HPLC on reversed phase columns”, the logP was 3.79^[b].

For `Cc1oncc1C(=O)N[C@@H]1CCC[C@H]1c1ccc(F)c(F)c1` (relative stereo) [Example 102], the logP (HPLC on reversed phase columns) was 2.82^[b].

Regarding `Cc1cccnc1C(=O)N[C@@H]1CCC[C@H]1c1ccc(F)c(F)c1` (relative stereo) [Example 103], the logP (HPLC on reversed phase columns) is 3.33^[b].

Take `Cc1ncncc1C(=O)N[C@@H]1CCC[C@H]1c1ccc(F)c(F)c1` (relative stereo) [Example 104]: the logP (HPLC on reversed phase columns) was 2.21^[b].

Consider `O=C(N[C@@H]1CCC[C@H]1c1ccc(F)c(F)c1)c1ccccc1F` (relative stereo) [Example 105], for which, under “HPLC on reversed phase columns”, the logP was 3.35^[b].

On to `O=C(N[C@@H]1CCC[C@H]1c1ccc(F)c(F)c1)c1cccnc1F` (relative stereo) [Example 106], for which, under “HPLC on reversed phase columns”, the logP is 2.80^[b].

`O=C(N[C@@H]1CCC[C@H]1c1ccc(F)c(F)c1)c1ccncc1F` (relative stereo) [Example 107]: under “HPLC on reversed phase columns”, the logP is 2.62^[b].

`Cc1ncc(C(=O)N[C@@H]2CCC[C@H]2c2ccc(F)c(F)c2)s1` (relative stereo) [Example 108]: the logP (HPLC on reversed phase columns) is 2.64^[b].

Consider `Cc1nnsc1C(=O)N[C@@H]1CCC[C@H]1c1ccc(F)c(F)c1` (relative stereo) [Example 109], for which the logP (HPLC on reversed phase columns) is 2.92^[b].

For `N#Cc1ncccc1C(=O)N[C@@H]1CCC[C@H]1c1ccc(F)c(F)c1` (relative stereo) [Example 110], the logP (HPLC on reversed phase columns) is 3.31^[b].

As to `Cn1cccc1C(=O)N[C@@H]1CCC[C@@H]1c1ccc(F)c(F)c1` (relative stereo) [Example 111], the logP (HPLC on reversed phase columns) is 3.13^[b].

Consider `Cc1oncc1C(=O)N[C@@H]1CCC[C@@H]1c1ccc(F)c(F)c1` (relative stereo) [Example 112], for which the logP (HPLC on reversed phase columns) is 2.73^[b].

With `Cn1cc(C(=O)N[C@@H]2CCC[C@@H]2c2ccc(F)c(F)c2)c(=O)[nH]1` (relative stereo) [Example 113], the logP (HPLC on reversed phase columns) was 2.00^[b].

Turning to `CCc1ccccc1C(=O)N[C@@H]1CCC[C@@H]1c1ccc(F)c(F)c1` (relative stereo) [Example 114], the logP (HPLC on reversed phase columns) was 3.75^[b].

Turning to `COc1c(C(=O)N[C@@H]2CCC[C@@H]2c2ccc(F)c(F)c2)c(C)nn1C` (relative stereo) [Example 116], the logP (HPLC on reversed phase columns) was 2.59^[b].

On to `Cc1ccc(C(=O)N[C@@H]2CCC[C@@H]2c2ccc(F)c(F)c2)c(Cl)n1` (relative stereo) [Example 117], for which the logP (HPLC on reversed phase columns) was 2.86^[b].

`CC(C)Oc1nn(C)cc1C(=O)N[C@@H]1CCC[C@@H]1c1ccc(F)c(F)c1` (relative stereo) [Example 118]: the logP (HPLC on reversed phase columns) is 3.27^[b].

For `O=C(N[C@@H]1CCC[C@@H]1c1ccc(F)c(F)c1)c1ccccc1OC(F)F` (relative stereo) [Example 119], the logP (HPLC on reversed phase columns) is 3.51^[b].

With `O=C(N[C@@H]1CCC[C@@H]1c1ccc(F)c(F)c1)c1c(Cl)ccnc1Cl` (relative stereo) [Example 120], under “HPLC on reversed phase columns”, the logP is 3.02^[b].

For `O=C(N[C@@H]1CCC[C@@H]1c1ccc(F)c(F)c1)c1snc(Cl)c1Cl` (relative stereo) [Example 121], the logP (HPLC on reversed phase columns) is 4.19^[b].

As to `Cn1nc(C(F)(F)F)c(C(=O)N[C@@H]2CCC[C@@H]2c2ccc(F)c(F)c2)c1F` (relative stereo) [Example 122], the logP (HPLC on reversed phase columns) was 3.27^[b].

Turning to `Cc1nc(Br)sc1C(=O)N[C@@H]1CCC[C@@H]1c1ccc(F)c(F)c1` (relative stereo) [Example 123], the logP (HPLC on reversed phase columns) is 3.46^[b].

For `O=C(N[C@@H]1CCC[C@@H]1c1ccc(F)c(F)c1)c1ccc(C(F)(F)F)nc1Cl` (relative stereo) [Example 124], where the note is “HPLC on reversed phase columns”, the logP is 3.68^[b].

Turning to `Cn1cc(C(=O)N[C@@H]2CCC[C@H]2c2ccc(F)c(F)c2)c(C(F)F)n1` (relative stereo) [Example 125], the logP (HPLC on reversed phase columns) was 2.88^[b].

Regarding `CCOc1nn(C)cc1C(=O)N[C@@H]1CCC[C@H]1c1ccc(F)c(F)c1` (relative stereo) [Example 127], the logP (HPLC reversed phase) was 3.13^[b].

For `Cc1nc(C(F)(F)F)c(C(=O)N[C@@H]2CCC[C@H]2c2ccc(F)c(F)c2)s1` (relative stereo) [Example 128], the logP (HPLC reversed phase) was 3.42^[b].

On to `O=C(N[C@@H]1CCC[C@H]1c1ccc(F)c(F)c1)c1ccsc1I` (relative stereo) [Example 129], for which the logP (HPLC reversed phase) was 3.58^[b].

With `O=C(N[C@@H]1CCC[C@H]1c1ccc(F)c(F)c1)C1=C(C(F)(F)F)OCCS1` (relative stereo) [Example 130], the logP (HPLC reversed phase) was 3.39^[b].

`O=C(N[C@@H]1CCC[C@H]1c1ccc(F)c(F)c1)c1ccccc1I` (relative stereo) [Example 131]: for the setting “HPLC reversed phase”, the logP is 3.56^[b].

As for `Cn1cccc1C(=O)N[C@@H]1CCC[C@H]1c1ccc(F)c(F)c1` (relative stereo) [Example 132], where the note is “HPLC reversed phase”, the logP was 3.23^[b].

On to `Cc1occc1C(=O)N[C@@H]1CCC[C@H]1c1ccc(F)c(F)c1` (relative stereo) [Example 133], for which the logP (HPLC reversed phase) is 3.17^[b].

Take `Cc1cc(C(=O)N[C@@H]2CCC[C@H]2c2ccc(F)c(F)c2)c(C)o1` (relative stereo) [Example 134]: for the setting “HPLC reversed phase”, the logP was 3.46^[b].

Consider `Cn1cc(C(=O)N[C@@H]2CCC[C@H]2c2ccc(F)c(F)c2)c(=O)[nH]1` (relative stereo) [Example 135], for which the logP (HPLC reversed phase) is 2.18^[b].
